{
  "source": "patent US7468384B2",
  "about": "“Microbicidal composition” (Rohm and Haas Company, priority 2004, dated 2008)",
  "test_system": "S. aureus 6538",
  "assay": "Synergy test, microtiter plate high resolution MIC assay, bacterium",
  "assay_type": "cell-based",
  "conditions": "for SI (calculated synergy index): S. aureus 6538, TSB",
  "from_the_text": "One measure of synergism is the industrially accepted method described by Kull, F. C.; Eisman, P. C.; Sylwestrowicz, H. D. and Mayer, R. L., in Applied Microbiology 9:538-541 (1961), using the ratio determined by the formula: Qa/QA+Qb/QB=Synergy Index (“SI”) wherein: • QA=concentration of compound A (first component) in ppm, acting alone, which produced an end point (MIC of Compound A). • Qa=concentration of compound A in ppm, in the mixture, which produced an end point. • QB=concentration of compound B (second component) in ppm, acting alone, which produced an end point (MIC of Compound B). • Qb=concentration of compound B in ppm, in the mixture, which produced an end point.\nWhen the sum of Qa/QA and Qb/QB is greater than one, antagonism is indicated. […] The lower the SI, the greater the synergy shown by that particular mixture. The minimum inhibitory concentration (MIC) of a microbicide is the lowest concentration tested under a specific set of conditions that prevents the growth of added microorganisms.\nSynergy tests were conducted using standard microtiter plate assays with media designed for optimal growth of the test microorganism. Soybean Casein Digest Broth (Tryptic Soy Broth, TSB medium) or minimal salt medium supplemented with 0.2% glucose and 0.1% yeast extract (M9GY medium) was used for testing bacteria; Potato Dextrose Broth (PDB medium) was used for testing yeast and mold. In this method, a wide range of combinations of microbicides was tested by conducting high resolution MIC assays in the presence of various concentrations of MI. High resolution MICs were determined by adding varying amounts of microbicide to one column of a microtitre plate and doing subsequent ten-fold dilutions using an automated liquid handling system to obtain a series of endpoints ranging from 2 ppm to 10,000 ppm active ingredient.",
  "note": "Like-named read-outs stand apart in the source and are kept apart here.",
  "data": [
    {"compound": "Cn1sccc1=O", "note": "[2-methyl-3-isothiazolone, 2-methyl-4-isothiazolin-3-one]", "values": [
      {"measurement": "MIC", "setting": "Staphylococcus aureus, 6538, 24 h, read-out: Qa: end-point activity (MIC) of MI in the mixture (MI alone, QA, where Qb = 0)", "value": 200, "unit": "µg/mL"},
      {"measurement": "MIC", "setting": "Staphylococcus aureus, 6538, 48 h, read-out: MIC of component acting alone (QA / QB)", "value": 300, "unit": "µg/mL"},
      {"measurement": "MIC", "setting": "Staphylococcus aureus, 6538, 48 h, read-out: Qa: end-point activity (MIC) of MI in the mixture (MI alone, QA, where Qb = 0)", "value": 300, "unit": "µg/mL"},
      {"measurement": "MIC", "setting": "Staphylococcus aureus, 6538, 72 h, read-out: MIC of component acting alone (QA / QB)", "value": 300, "unit": "µg/mL"},
      {"measurement": "SI (calculated synergy index)", "setting": "Table 5, 48 hours", "value": 1.00},
      {"measurement": "SI (calculated synergy index)", "setting": "Table 6, 24 hours", "value": 1.00}
    ]}
  ]
}
